Measured values taken from US10807992B2, “Single enantiomer antiparasitic compounds” (priority 2017, dated 2020).

Columns and labels:
[1] = system: Ctenocephalides felis; assay: In vitro contact activity against fleas (coated substrate); conditions: for mortality at 0.006 ppm: Trial 3, dose 0.006 ppm; for mortality at 0.024 ppm: Trial 3, dose 0.024 ppm; for mortality at 0.098 ppm: Trial 3, dose 0.098 ppm; for mortality at 0.39 ppm: Trial 3, dose 0.39 ppm; for mortality at 1.56 ppm: Trial 3, dose 1.56 ppm; for mortality at 6.25 ppm: Trial 3, dose 6.25 ppm; for mortality at 25 ppm: Trial 3, dose 25 ppm; for mortality at 100 ppm: Trial 3, dose 100 ppm
Protocol: (§1) Ctenocephalides felis (Avista Pharma, Inc., RTP, NC), 1-7days post hatch, held in an environmental chamber at 24° C., 85% humidity.
For flea contact tests, vial caps were pre-drilled with a single hole in the center of each cap to allow air exchange. A filter paper (Whatman Grade 540 2.1 cm) was placed in the lid of each vial. Pipe cleaners cut to 0.5 inches were inserted in each test vial. An aliquot was taken from each compound stock and added to an acetone/triton solution to achieve the desired top concentrations for the study. Serial dilutions were conducted from the top dose (i.e. 100 ppm) to achieve the desired concentration for EC50 and EC90 determination. The final DMSO concentration was 0.5%. A 75 μL aliquot of each compound formulation was added to each 0.5 inch pipe cleaner contained in the treatment vial. The vials were loosely capped and allowed to dry for a minimum of four hours in a chemical fume hood.
(§2) Compounds tested were C1 racemate, the C1 (R) enantiomer, and the C1 (S) enantiomer. For Trial 3, the C1 (R) enantiomer and the C1 (S) enantiomer were further chiral purified to achieve >99% purity.
(§3) For both contact and ingestion assays, ten newly emerged unfed adult fleas, 0-7 days old Ctenocephalides felis, from a laboratory colony, were aspirated into each vial or cage. The test vials for contact assays were held in an environmental chamber at 24° C., 80% humidity with light/dark cycles (12 hours each). The cages for flea ingestion assays were held in a temperature-controlled artificial feeding apparatus to allow continual access to organic bovine blood containing the desired concentration of compound. Fresh aliquots of compound-spiked bovine blood were provided daily for the duration of the study.
(§4) Fleas were evaluated for percent mortality at various time points between 2 hours and 48 hours post infestation. Fleas showing normal movement and/or jumping ability were considered viable and those showing no movement after tapping the vials were scored as dead.

[2] = system: Ctenocephalides felis; assay: In vitro ingestion activity against fleas (artificial feeding, bovine blood); conditions: for mortality at 0.003 ppm: Trial 3, dose 0.003 ppm; for mortality at 0.012 ppm: Trial 3, dose 0.012 ppm; for mortality at 0.049 ppm: Trial 3, dose 0.049 ppm; for mortality at 0.2 ppm: Trial 3, dose 0.20 ppm; for mortality at 0.78 ppm: Trial 3, dose 0.78 ppm; for mortality at 3.125 ppm: Trial 3, dose 3.125 ppm; for mortality at 12.5 ppm: Trial 3, dose 12.5 ppm; for mortality at 50 ppm: Trial 3, dose 50 ppm
Protocol: as §1
For flea ingestion tests, serial dilutions of the compound stock were performed using DMSO to achieve the desired range for EC50 and EC90 determination. An aliquot of each compound dilution was added to organic bovine blood with a final DMSO concentration of 0.5% and placed in an artificial feeding container.
as §2, §3, §4

O=C(CC(F)(F)F)N1CC2(C1)OCc1cc(C3=NSC(c4cc(Cl)c(F)c(Cl)c4)(C(F)(F)F)C3)ccc12 (racemic) [C1 racemate, 1-[6-[5-(3,5-dichloro-4-fluoro-phenyl)-5-(trifluoromethyl)-4H-isothiazol-3-yl]spiro[1H-isobenzofuran-3,3′-azetidine]-1′-yl]-3,3,3-trifluoro-propan-1-one]
mortality at 0.006 ppm ([1]; 6 h, Rep1): 0%
mortality at 0.006 ppm ([1]; 6 h, Rep2): 0%
mortality at 0.024 ppm ([1]; 6 h, Rep1): 0%
mortality at 0.024 ppm ([1]; 6 h, Rep2): 0%
mortality at 0.098 ppm ([1]; 6 h, Rep1): 0%
mortality at 0.098 ppm ([1]; 6 h, Rep2): 0%
mortality at 0.39 ppm ([1]; 6 h, Rep1): 0%
mortality at 0.39 ppm ([1]; 6 h, Rep2): 0%
mortality at 1.56 ppm ([1]; 6 h, Rep1): 0%
mortality at 1.56 ppm ([1]; 6 h, Rep2): 0%
mortality at 6.25 ppm ([1]; 6 h, Rep1): 0%
mortality at 6.25 ppm ([1]; 6 h, Rep2): 0%
mortality at 25 ppm ([1]; 6 h, Rep1): 0%
mortality at 25 ppm ([1]; 6 h, Rep2): 0%
mortality at 100 ppm ([1]; 6 h, Rep1): 0%
mortality at 100 ppm ([1]; 6 h, Rep2): 0%
mortality at 0.006 ppm ([1]; 24 h, Rep1): 0%
mortality at 0.006 ppm ([1]; 24 h, Rep2): 0%
mortality at 0.024 ppm ([1]; 24 h, Rep1): 0%
mortality at 0.024 ppm ([1]; 24 h, Rep2): 0%
mortality at 0.098 ppm ([1]; 24 h, Rep1): 0%
mortality at 0.098 ppm ([1]; 24 h, Rep2): 0%
mortality at 0.39 ppm ([1]; 24 h, Rep1): 0%
mortality at 0.39 ppm ([1]; 24 h, Rep2): 0%
mortality at 1.56 ppm ([1]; 24 h, Rep1): 0%
mortality at 1.56 ppm ([1]; 24 h, Rep2): 0%
mortality at 6.25 ppm ([1]; 24 h, Rep1): 0%
mortality at 6.25 ppm ([1]; 24 h, Rep2): 0%
mortality at 25 ppm ([1]; 24 h, Rep1): 0%
mortality at 25 ppm ([1]; 24 h, Rep2): 0%
mortality at 100 ppm ([1]; 24 h, Rep1): 70%
mortality at 100 ppm ([1]; 24 h, Rep2): 40%
mortality at 0.006 ppm ([1]; 48 h, Rep1): 0%
mortality at 0.006 ppm ([1]; 48 h, Rep2): 0%
mortality at 0.024 ppm ([1]; 48 h, Rep1): 0%
mortality at 0.024 ppm ([1]; 48 h, Rep2): 0%
mortality at 0.098 ppm ([1]; 48 h, Rep1): 0%
mortality at 0.098 ppm ([1]; 48 h, Rep2): 0%
mortality at 0.39 ppm ([1]; 48 h, Rep1): 0%
mortality at 0.39 ppm ([1]; 48 h, Rep2): 0%
mortality at 1.56 ppm ([1]; 48 h, Rep1): 0%
mortality at 1.56 ppm ([1]; 48 h, Rep2): 0%
mortality at 6.25 ppm ([1]; 48 h, Rep1): 0%
mortality at 6.25 ppm ([1]; 48 h, Rep2): 0%
mortality at 25 ppm ([1]; 48 h, Rep1): 80%
mortality at 25 ppm ([1]; 48 h, Rep2): 70%
mortality at 100 ppm ([1]; 48 h, Rep1): 100%
mortality at 100 ppm ([1]; 48 h, Rep2): 100%
mortality at 0.003 ppm ([2]; 6 h, Rep1): 0%
mortality at 0.003 ppm ([2]; 6 h, Rep2): 0%
mortality at 0.012 ppm ([2]; 6 h, Rep1): 0%
mortality at 0.012 ppm ([2]; 6 h, Rep2): 0%
mortality at 0.049 ppm ([2]; 6 h, Rep1): 0%
mortality at 0.049 ppm ([2]; 6 h, Rep2): 0%
mortality at 0.2 ppm ([2]; 6 h, Rep1): 10%
mortality at 0.2 ppm ([2]; 6 h, Rep2): 10%
mortality at 0.78 ppm ([2]; 6 h, Rep1): 70%
mortality at 0.78 ppm ([2]; 6 h, Rep2): 90%
mortality at 3.125 ppm ([2]; 6 h, Rep1): 90%
mortality at 3.125 ppm ([2]; 6 h, Rep2): 70%
mortality at 12.5 ppm ([2]; 6 h, Rep1): 90%
mortality at 12.5 ppm ([2]; 6 h, Rep2): 100%
mortality at 50 ppm ([2]; 6 h, Rep1): 90%
mortality at 50 ppm ([2]; 6 h, Rep2): 70%
mortality at 0.003 ppm ([2]; 24 h, Rep1): 0%
mortality at 0.003 ppm ([2]; 24 h, Rep2): 0%
mortality at 0.012 ppm ([2]; 24 h, Rep1): 0%
mortality at 0.012 ppm ([2]; 24 h, Rep2): 0%
mortality at 0.049 ppm ([2]; 24 h, Rep1): 0%
mortality at 0.049 ppm ([2]; 24 h, Rep2): 10%
mortality at 0.2 ppm ([2]; 24 h, Rep1): 30%
mortality at 0.2 ppm ([2]; 24 h, Rep2): 80%
mortality at 0.78 ppm ([2]; 24 h, Rep1): 90%
mortality at 0.78 ppm ([2]; 24 h, Rep2): 90%
mortality at 3.125 ppm ([2]; 24 h, Rep1): 90%
mortality at 3.125 ppm ([2]; 24 h, Rep2): 90%
mortality at 12.5 ppm ([2]; 24 h, Rep1): 90%
mortality at 12.5 ppm ([2]; 24 h, Rep2): 100%
mortality at 50 ppm ([2]; 24 h, Rep1): 90%
mortality at 50 ppm ([2]; 24 h, Rep2): 80%
mortality at 0.003 ppm ([2]; 48 h, Rep1): 0%
mortality at 0.003 ppm ([2]; 48 h, Rep2): 0%
mortality at 0.012 ppm ([2]; 48 h, Rep1): 0%
mortality at 0.012 ppm ([2]; 48 h, Rep2): 0%
mortality at 0.049 ppm ([2]; 48 h, Rep1): 10%
mortality at 0.049 ppm ([2]; 48 h, Rep2): 10%
mortality at 0.2 ppm ([2]; 48 h, Rep1): 80%
mortality at 0.2 ppm ([2]; 48 h, Rep2): 80%
mortality at 0.78 ppm ([2]; 48 h, Rep1): 90%
mortality at 0.78 ppm ([2]; 48 h, Rep2): 100%
mortality at 3.125 ppm ([2]; 48 h, Rep1): 90%
mortality at 3.125 ppm ([2]; 48 h, Rep2): 100%
mortality at 12.5 ppm ([2]; 48 h, Rep1): 90%
mortality at 12.5 ppm ([2]; 48 h, Rep2): 100%
mortality at 50 ppm ([2]; 48 h, Rep1): 90%
mortality at 50 ppm ([2]; 48 h, Rep2): 90%
